From ChEMBL document CHEMBL6120961, “Design, Synthesis, and Biological Evaluation of Covalently Mucoadhesive Derivatives as Nonsystemic Intestine-Targeted TGR5 Agonists” (J Med Chem, 2024)
pEC50: −log10 of the molar value. The source made the active and inactive calls. No cut-off for these calls is given here.

Key:
[1] = Toxicity in overnight fasted male C57BL/6J mouse assessed as increase in gallbladder volume at 50 mg/kg, po measured after 6 hrs; type: organism-based; details: in vivo
[2] = Toxicity in overnight fasted male C57BL/6J mouse assessed as increase in bile weight at 50 mg/kg, po measured after 6 hrs; type: organism-based; details: in vivo
[3] = Apparent permeability across apical to basolateral side in human Caco-2 cells assessed as drug recovery at 2 uM incubated for 2 hrs by LC-MS/MS analysis; type: ADME, cell-based; details: read-out: Drug recovery
[4] = target: T1, G-protein coupled bile acid receptor 1 (Homo sapiens, UniProt Q8TDU6); experiment: Agonist activity at human TGR5 expressed in HEK293T cells assessed as cAMP production incubated for 30 mins by HTRF assay; type: functional, cell-based
T1 sequence (Q8TDU6 whole entry): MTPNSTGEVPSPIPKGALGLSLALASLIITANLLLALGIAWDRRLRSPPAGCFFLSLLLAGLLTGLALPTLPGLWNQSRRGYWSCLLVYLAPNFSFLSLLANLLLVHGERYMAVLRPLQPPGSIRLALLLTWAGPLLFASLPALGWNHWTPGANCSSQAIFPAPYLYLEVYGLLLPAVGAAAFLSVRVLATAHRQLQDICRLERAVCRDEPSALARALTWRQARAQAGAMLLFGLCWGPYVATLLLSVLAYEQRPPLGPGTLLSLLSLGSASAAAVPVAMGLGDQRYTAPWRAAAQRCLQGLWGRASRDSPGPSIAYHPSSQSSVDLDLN

[5] = target: T2, G-protein coupled bile acid receptor 1 (Mus musculus, UniProt Q80SS6); experiment: Agonist activity at mouse TGR5 expressed in HEK293T cells assessed as cAMP production incubated for 30 mins by HTRF assay; type: cell-based
T2 sequence (Q80SS6 whole entry): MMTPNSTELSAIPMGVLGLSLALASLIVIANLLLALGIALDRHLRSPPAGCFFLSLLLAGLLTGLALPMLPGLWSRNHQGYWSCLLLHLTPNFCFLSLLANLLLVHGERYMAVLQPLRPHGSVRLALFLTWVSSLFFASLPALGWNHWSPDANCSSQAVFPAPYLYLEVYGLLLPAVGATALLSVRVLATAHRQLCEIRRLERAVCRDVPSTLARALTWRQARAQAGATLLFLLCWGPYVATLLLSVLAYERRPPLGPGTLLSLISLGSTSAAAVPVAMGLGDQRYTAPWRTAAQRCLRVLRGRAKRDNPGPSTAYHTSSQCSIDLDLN

[6] = tested on: Mus musculus; experiment: Hypoglycemic activity in overnight fasted C57BL/6 mouse assessed as reduction in blood glucose level at 50 mg/kg, po preadministered with compound for 60 mins followed by first dose of glucose administration for 120 mins and measured after 120 mins of second glucose administration by oral glucose tolerance test; type: functional, organism-based; details: time 5.0 hrs
[7] = Efflux ratio of apparent permeability across basolateral to apical over apical to basolateral side in human Caco-2 cells at 10 uM incubated for 2 hrs by LC-MS/MS analysis
[8] = Apparent permeability across apical to basolateral side in human Caco-2 cells at 10 uM incubated for 2 hrs by LC-MS/MS analysis
[9] = Apparent permeability across basolateral to apical side in human Caco-2 cells at 10 uM incubated for 2 hrs by LC-MS/MS analysis
[10] = Apparent permeability across apical to basolateral side in human Caco-2 cells assessed as drug recovery at 10 uM incubated for 2 hrs by LC-MS/MS analysis
[11] = Apparent permeability across basolateral to apical side in human Caco-2 cells assessed as drug recovery at 10 uM incubated for 2 hrs by LC-MS/MS analysis
[12] = Apparent permeability across apical to basolateral side in human Caco-2 cells at 2 uM incubated for 2 hrs by LC-MS/MS analysis; type: ADME, cell-based
[13] = tested on: Mus musculus; experiment: Hypoglycemic activity in overnight fasted C57BL/6 mouse assessed as reduction in blood glucose AUC (0 to 120 min) at 50 mg/kg, po preadministered with compound for 60 mins followed by first dose of glucose administration for 120 mins and measured after 120 mins of second glucose administration by oral glucose tolerance test relative to control; type: functional; design: scale not given: the % may be the effect or the level left; details: time 5 hrs
[14] = tested on: Mus musculus; experiment: Hypoglycemic activity in overnight fasted C57BL/6 mouse assessed as reduction in blood glucose AUC (180 to 300 min) at 50 mg/kg, po preadministered with compound for 60 mins followed by first dose of glucose administration for 120 mins and measured after 120 mins of second glucose administration by oral glucose tolerance test relative to control; type: functional; design: scale not given: the % may be the effect or the level left; details: time 5 hrs
[15] = tested on: Mus musculus; experiment: Hypoglycemic activity in TGR5-/- mouse model assessed as reduction in blood glucose level at 50 mg/kg, po preadministered with compound for 60 mins followed by glucose administration and measured after 120 mins by oral glucose tolerance test; type: functional, organism-based; details: time 180.0 min
[16] = tested on: Mus musculus; experiment: Insulin sensitizing activity in over-night fasted male C57BL/6J mouse model assessed as reduction in plasma glucose AUC level at 50 mg/kg, po preadministered with compound for 60 mins followed by insulin administration and measured after 120 mins by insulin tolerance test; type: functional, organism-based; details: time 180.0 min
[17] = target: T3, G-protein coupled bile acid receptor 1 (Homo sapiens) (UniProt Q8TDU6); experiment: Agonist activity at TGR5 in human NCI-H716 cells assessed as increase in GLP-1 secretion at 10 uM preincubated with vildagliptin followed by compound addition and measured after 2 hrs by GLP-1(7 to 36) ELISA; type: functional, cell-based; details: filed as agonist
T3 sequence (whole entry): T1 sequence (Q8TDU6 whole entry)

[18] = tested on: Mus musculus; experiment: In vivo agonist activity at TGR5 in wildtype C57BL/6J mouse assessed as increase in GLP-1 secretion in blood at 50 mg/kg, po preadministered with vildagliptin for 1 hrs followed by compound administration and measured after 4 hrs; type: functional, organism-based
[19] = tested on: Mus musculus; experiment: Induction of GLP-1 secretion in TGR5-/- mouse model at 50 mg/kg, po preadministered with vildagliptin for 1 hrs followed by compound administration and measured after 4 hrs; type: functional, organism-based
[20] = tested on: Mus musculus; experiment: Hypoglycemic activity in diet-induced obese mouse model assessed as reduction in blood glucose level at 50 mg/kg, po administered every day and measured after 4 to 8 days; type: functional, organism-based; details: time 4-8 day
[21] = tested on: Mus musculus; experiment: Hypoglycemic activity in diet-induced obese mouse model assessed as reduction in blood glucose AUC (0 to 12 days) level at 50 mg/kg, po administered every day and measured after 12 days relative to control; type: functional; design: scale not given: the % may be the effect or the level left; details: time 12 day
[22] = tested on: Mus musculus; experiment: Hypoglycemic activity in non-fasted diabetic db/db mouse model assessed as decrease in plasma HbA1c level at 50 mg/kg, IG administered once daily for 28 days by glycosylated hemoglobin (GHb) assay; type: functional, organism-based; details: time 28.0 day
[23] = Toxicity in overnight fasted male C57BL/6J mouse assessed as increase in gallbladder volume at 50 mg/kg, iv measured after 2 hrs; type: organism-based; details: in vivo
[24] = Toxicity in overnight fasted male C57BL/6J mouse assessed as increase in bile weight at 50 mg/kg, iv measured after 2 hrs; type: organism-based; details: in vivo
[25] = Acute toxicity in overnight fasted male C57BL/6J mouse model assessed as behavioral abnormalities at 50 to 200 mg/kg, IG administered for 3 days; type: organism-based; details: in vivo, po, 72 h, dose 50-200 mg/kg, time 3 day
[26] = Acute toxicity in overnight fasted male C57BL/6J mouse model assessed as effect on LDH level in blood at 50 mg/kg, IG administered for 3 days; type: organism-based; details: in vivo, po, 72 h, time 3 day
[27] = Acute toxicity in overnight fasted male C57BL/6J mouse model assessed as effect on ALT level in blood at 50 mg/kg, IG administered for 3 days; type: organism-based; details: in vivo, po, 72 h, time 3 day
[28] = Acute toxicity in overnight fasted male C57BL/6J mouse model assessed as effect on AST level in blood at 50 mg/kg, IG administered for 3 days; type: organism-based; details: in vivo, po, 72 h, time 3 day
[29] = Acute toxicity in overnight fasted male C57BL/6J mouse model assessed as effect on ALP level in blood at 50 mg/kg, IG administered for 3 days; type: organism-based; details: in vivo, po, 72 h, time 3 day
[30] = Acute toxicity in overnight fasted male C57BL/6J mouse model assessed as effect on total protein level in blood at 50 mg/kg, IG administered for 3 days; type: organism-based; details: in vivo, po, 72 h, time 3 day
[31] = Acute toxicity in overnight fasted male C57BL/6J mouse model assessed as effect on uric acid level in blood at 50 mg/kg, IG administered for 3 days; type: organism-based; details: in vivo, po, 72 h, time 3 day
[32] = Acute toxicity in overnight fasted male C57BL/6J mouse model assessed as effect on urea level in blood at 50 mg/kg, IG administered for 3 days; type: organism-based; details: in vivo, po, 72 h, time 3 day
[33] = Acute toxicity in overnight fasted male C57BL/6J mouse model assessed as effect on […] level in blood at 50 mg/kg, IG administered for 3 days; type: organism-based; details: in vivo, po, 72 h, time 3 day
[34] = Acute toxicity in overnight fasted male C57BL/6J mouse model assessed as increase in ALT level in blood at 200 mg/kg, IG administered for 3 days; type: organism-based; details: in vivo, po, 72 h, time 3 day
[35] = Acute toxicity in overnight fasted male C57BL/6J mouse model assessed as increase in AST level in blood at 200 mg/kg, IG administered for 3 days; type: organism-based; details: in vivo, po, 72 h, time 3 day
[36] = Acute toxicity in overnight fasted male C57BL/6J mouse model assessed as increase in serum uric acid level at 200 mg/kg, IG administered for 3 days; type: organism-based; details: in vivo, po, 72 h, time 3 day
[37] = Acute toxicity in overnight fasted male C57BL/6J mouse model assessed as histopathological change in liver at 50 to 200 mg/kg, IG administered for 3 days by H and E staining based analysis; type: organism-based; details: in vivo, po, 72 h, dose 50-200 mg/kg, time 3 day
[38] = Apparent permeability across basolateral to apical side in human Caco-2 cells at 2 uM incubated for 2 hrs by LC-MS/MS analysis; type: ADME, cell-based
[39] = Apparent permeability across basolateral to apical side in human Caco-2 cells assessed as drug recovery at 2 uM incubated for 2 hrs by LC-MS/MS analysis; type: ADME, cell-based; details: read-out: Drug recovery
[40] = species on record: Homo sapiens; experiment: Binding affinity to mucin (unknown origin) assessed as disappearance of peak at 9.793 retention time incubated for 2 hrs by HPLC analysis
[41] = species on record: Rattus norvegicus; experiment: Muco-adhesive activity in rat intestine assessed as disappearance of peak at 9.793 retention time incubated for 2 hrs by HPLC analysis; type: functional

SMILES: O=C(c1cnccc1Oc1cc(Cl)ccc1Cl)N1CCN(C2CC2)c2ccccc21
- Activity [1]: Toxic
- Activity [2]: Toxic

SMILES: CC(C)(C)NCC(O)COc1cccc2c1CC(O)C(O)C2 (configuration not stated) [NADOLOL]
- recovery at 2 h, 2 µM [3]: 102%

SMILES: O=C(CCCCCN1C(=O)C=CC1=O)NCCCCCCCCNC(=O)CCc1cc(Cl)c(Oc2ccncc2C(=O)N2CCN(C3CC3)c3ccccc32)cc1Cl
- pEC50 [4]: 6.45
- pEC50 [5]: 6.40
- Activity [6]: inactive

SMILES: O=C(CCCCCN1C(=O)C=CC1=O)NCCCCNC(=O)CCc1cc(Cl)c(Oc2ccncc2C(=O)N2CCN(C3CC3)c3ccccc32)cc1Cl
- pEC50 [4]: 6.70
- pEC50 [5]: 6.08
- Activity [6]: inactive

SMILES: C[C@H]1O[C@@H](O[C@H]2[C@@H](O)C[C@H](O[C@H]3[C@@H](O)C[C@H](O[C@H]4CC[C@@]5(C)[C@H](CC[C@@H]6[C@@H]5C[C@@H](O)[C@]5(C)[C@@H](C7=CC(=O)OC7)CC[C@]65O)C4)O[C@@H]3C)O[C@@H]2C)C[C@H](O)[C@@H]1O [DIGOXIN]
- efflux ratio at 2 h, 10 µM [7]: 535
- Papp A→B at 2 h, 10 µM [8]: 0.024 ×10⁻⁶ cm/s
- Papp B→A at 2 h, 10 µM [9]: 13.1 ×10⁻⁶ cm/s
- recovery at 2 h, 10 µM [10]: 102%
- recovery at 2 h, 10 µM [11]: 103%

SMILES: COCCc1ccc(OCC(O)CNC(C)C)cc1 (configuration not stated) [METOPROLOL]
- Papp A→B at 2 h, 2 µM [12]: 18.8 ×10⁻⁶ cm/s
- recovery at 2 h, 2 µM [3]: 104%

SMILES: O=C(CCCCCN1C(=O)C=CC1=O)NCCCCCCNC(=O)CCc1cc(Cl)c(Oc2ccncc2C(=O)N2CCN(C3CC3)c3ccccc32)cc1Cl
- pEC50 [4]: 6.78
- pEC50 [5]: 6.86
- Activity [6]: Active
- Activity [13]: 19.5%
- Activity [14]: 15.9%
- Activity [15]: inactive
- Activity [16]: Active
- Activity [17]: Active
- Activity [18]: Active
- Activity [19]: inactive
- Activity [20]: Active
- Activity [21]: 10.4%
- Activity [22]: Active
- Activity [1]: Non-toxic
- Activity [2]: Non-toxic
- Activity [23]: Toxic
- Activity [24]: Toxic
- Activity [25]: Non-toxic
- Activity [26]: Non-toxic
- Activity [27]: Non-toxic
- Activity [28]: Non-toxic
- Activity [29]: Non-toxic
- Activity [30]: Non-toxic
- Activity [31]: Non-toxic
- Activity [32]: Non-toxic
- Activity [33]: Non-toxic
- Activity [34]: Toxic
- Activity [35]: Toxic
- Activity [36]: Toxic
- Activity [37]: Non-toxic
- Papp A→B at 2 h, 2 µM [12]: < 0.48 ×10⁻⁶ cm/s
- Papp B→A at 2 h, 2 µM [38]: < 0.432 ×10⁻⁶ cm/s
- recovery at 2 h, 2 µM [3]: < 1.1%
- recovery at 2 h, 2 µM [39]: < 22.8%
- Activity [40]: Active
- Activity [41]: Active
